What follows are compounds tested against T1, Polyphenol oxidase 2 (Agaricus bisporus, UniProt O42713) (assay: Inhibition of mushroom tyrosinase).
T1 sequence (O42713 whole entry): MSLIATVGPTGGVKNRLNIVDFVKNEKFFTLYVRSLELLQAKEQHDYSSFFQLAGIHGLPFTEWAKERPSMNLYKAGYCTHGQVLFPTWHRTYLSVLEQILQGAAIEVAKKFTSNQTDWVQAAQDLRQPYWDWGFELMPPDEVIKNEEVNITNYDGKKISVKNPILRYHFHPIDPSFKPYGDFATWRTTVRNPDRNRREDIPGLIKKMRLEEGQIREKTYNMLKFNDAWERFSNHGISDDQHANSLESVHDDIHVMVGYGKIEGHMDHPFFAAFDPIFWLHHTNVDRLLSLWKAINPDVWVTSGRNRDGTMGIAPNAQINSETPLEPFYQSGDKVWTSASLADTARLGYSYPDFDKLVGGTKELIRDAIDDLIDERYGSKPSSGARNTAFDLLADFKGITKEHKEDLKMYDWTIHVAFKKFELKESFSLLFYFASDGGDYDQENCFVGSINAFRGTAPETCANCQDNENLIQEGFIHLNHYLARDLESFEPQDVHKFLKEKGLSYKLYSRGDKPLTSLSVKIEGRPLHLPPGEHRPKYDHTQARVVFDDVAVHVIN

IC50, > 200 µM:
CC(=O)OC[C@H]1O[C@@H](Oc2ccc(CN=O)cc2)[C@H](OC(C)=O)[C@@H](OC(C)=O)[C@@H]1OC(C)=O, O=NCc1ccc(O[C@@H]2O[C@H](CO)[C@@H](O)[C@H](O)[C@H]2O)cc1, O=NCc1ccc(O[C@@H]2O[C@H](CO)[C@@H](O)[C@@H](O)[C@H]2O)cc1 [4-((2S,3R,4R,5S,6R)-3,4,5-trihydroxy-6-(hydroxymethyl)tetrahydro-2H-pyran-2-yloxy)benzaldehyde oxime], CC(=O)OC[C@H]1O[C@@H](Oc2ccc(CN=O)cc2)[C@H](OC(C)=O)[C@H](OC(C)=O)[C@@H]1OC(C)=O [(2R,3R,4R,5R,6S)-2-(acetoxymethyl)-6-(4-((hydroxyimino)methyl)phenoxy)tetrahydro-2H-pyran-3,4,5-triyl triacetate], O=NCc1ccc(O[C@@H]2O[C@H](COC(=O)c3ccccc3)[C@@H](OC(=O)c3ccccc3)[C@@H](OC(=O)c3ccccc3)[C@H]2OC(=O)c2ccccc2)cc1 [(2R,3R,4R,5R,6S)-2-(benzoyloxymethyl)-6-(4-((hydroxyimino)methyl)phenoxy)tetrahydro-2H-pyran-3,4,5-triyl tribenzoate], CC(=O)OC[C@H]1O[C@@H](Oc2ccc(CN=O)cc2)[C@H](OC(C)=O)[C@@H](OC(C)=O)[C@H]1OC(C)=O [(2R,3S,4S,5R,6S)-2-(acetoxymethyl)-6-(4-((hydroxyimino)methyl)phenoxy)tetrahydro-2H-pyran-3,4,5-triyl triacetate], CC(=O)OC[C@H]1O[C@@H](O[C@H]2[C@H](OC(C)=O)[C@@H](OC(C)=O)[C@H](Oc3ccc(CN=O)cc3)O[C@@H]2COC(C)=O)[C@H](OC(C)=O)[C@@H](OC(C)=O)[C@H]1OC(C)=O [(2R,3S,4S,5R,6S)-2-(acetoxymethyl)-6-((2R,3R,4S,5R,6S)-4,5-diacetoxy-2-(acetoxymethyl)-6-(4-((hydroxyimino)methyl)phenoxy)tetrahydro-2H-pyran-3-yloxy)tetrahydro-2H-pyran-3,4,5-triyl triacetate], O=NCc1ccc(O[C@@H]2OC[C@@H](OC(=O)c3ccccc3)[C@H](OC(=O)c3ccccc3)[C@H]2OC(=O)c2ccccc2)cc1 [(2S,3R,4S,5R)-2-(4-((hydroxyimino)methyl)phenoxy)tetrahydro-2H-pyran-3,4,5-triyl tribenzoate]

— BindingDB's records for doi:10.1016/j.bmcl.2009.09.018 (Sun Yat-Sen University, 2009)
